#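 Grown in 96-well plates, cells were treated for 48 hours with each compound at five concentrations. Insufficient inhibition: endpoint recorded as highest concentration tested. Here, GI50 denotes the concentration required for 50% inhibition of growth. TGI denotes the concentration required for complete inhibition of growth.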
# Key:
# Assay in all cases: NCI tumour cell line growth inhibition, 48 h
# ACHN renal = test system: ACHN renal
# K-562 leukemia = test system: K-562 leukemia
# NCI-H23 lung = test system: NCI-H23 lung
# RPMI-8226 leukemia = test system: RPMI-8226 leukemia
# SF-295 CNS = test system: SF-295 CNS
# SF-539 CNS = test system: SF-539 CNS
# SK-MEL-28 melanoma = test system: SK-MEL-28 melanoma
# SK-OV-3 ovarian = test system: SK-OV-3 ovarian
# UACC-257 melanoma = test system: UACC-257 melanoma
# UO-31 renal = test system: UO-31 renal
structure (smiles),measurement,setting,value
COc1cc(Br)c(C=Nc2cccc3ccc(OS(=O)(=O)c4cccc([N+](=O)[O-])c4)cc23)cc1OC,TGI,ACHN renal,> 100 µM
same,TGI,K-562 leukemia,> 100 µM
same,TGI,NCI-H23 lung,44.8 µM
same,TGI,RPMI-8226 leukemia,> 100 µM
same,TGI,SF-295 CNS,60.4 µM
same,TGI,SF-539 CNS,39.5 µM
same,TGI,SK-MEL-28 melanoma,> 100 µM
same,TGI,SK-OV-3 ovarian,> 100 µM
same,TGI,UACC-257 melanoma,> 100 µM
same,TGI,UO-31 renal,> 100 µM
N.N.N.N.N.N.O=N[O-].[Br-].[Co+3].[Co+3].[OH3+].[OH3+],GI50,ACHN renal,> 100 µM
same,TGI,ACHN renal,> 100 µM
same,GI50,K-562 leukemia,> 100 µM
same,TGI,K-562 leukemia,> 100 µM
same,GI50,NCI-H23 lung,> 100 µM
same,TGI,NCI-H23 lung,> 100 µM
same,GI50,RPMI-8226 leukemia,> 100 µM
same,TGI,RPMI-8226 leukemia,> 100 µM
same,GI50,SF-295 CNS,> 100 µM
same,TGI,SF-295 CNS,> 100 µM
same,GI50,SF-539 CNS,> 100 µM
same,TGI,SF-539 CNS,> 100 µM
same,GI50,SK-MEL-28 melanoma,> 100 µM
same,TGI,SK-MEL-28 melanoma,> 100 µM
same,GI50,SK-OV-3 ovarian,> 100 µM
same,TGI,SK-OV-3 ovarian,> 100 µM
same,GI50,UACC-257 melanoma,> 100 µM
same,TGI,UACC-257 melanoma,> 100 µM
same,GI50,UO-31 renal,> 100 µM
same,TGI,UO-31 renal,> 100 µM
Cc1nn(-c2ccccc2)c(-c2ccccc2[N+](=O)[O-])c1CC#N,TGI,ACHN renal,> 100 µM
same,TGI,K-562 leukemia,> 100 µM
same,TGI,NCI-H23 lung,> 100 µM
same,TGI,RPMI-8226 leukemia,> 100 µM
same,TGI,SF-295 CNS,> 100 µM
same,TGI,SF-539 CNS,> 100 µM
same,TGI,SK-MEL-28 melanoma,> 100 µM
same,TGI,SK-OV-3 ovarian,> 100 µM
same,TGI,UACC-257 melanoma,> 100 µM
same,TGI,UO-31 renal,> 100 µM
O=C1CC(=O)OC(c2ccc([N+](=O)[O-])cc2)O1,GI50,ACHN renal,1.68 µM
same,TGI,ACHN renal,3.16 µM
same,GI50,K-562 leukemia,2.56 µM
same,TGI,K-562 leukemia,> 100 µM
same,GI50,NCI-H23 lung,2.15 µM
same,TGI,NCI-H23 lung,5.2 µM
same,GI50,RPMI-8226 leukemia,2.51 µM
same,TGI,RPMI-8226 leukemia,7.33 µM
same,GI50,SF-295 CNS,4.85 µM
same,TGI,SF-295 CNS,14 µM
same,GI50,SF-539 CNS,1.98 µM
same,TGI,SF-539 CNS,4.3 µM
same,GI50,SK-MEL-28 melanoma,1.93 µM
same,TGI,SK-MEL-28 melanoma,4.08 µM
same,GI50,SK-OV-3 ovarian,7.05 µM
same,TGI,SK-OV-3 ovarian,19.2 µM
same,GI50,UACC-257 melanoma,1.66 µM
same,TGI,UACC-257 melanoma,3.36 µM
same,GI50,UO-31 renal,1.64 µM
same,TGI,UO-31 renal,3.55 µM
COC(=O)CCC1=C(C)/C(=C/c2[nH]c(-c3ccc[nH]3)cc2OC)N=C1C,GI50,ACHN renal,0.84 µM
same,TGI,ACHN renal,3.75 µM
same,GI50,K-562 leukemia,0.374 µM
same,TGI,K-562 leukemia,4.9 µM
same,GI50,NCI-H23 lung,0.587 µM
same,TGI,NCI-H23 lung,3.84 µM
same,GI50,RPMI-8226 leukemia,0.272 µM
same,TGI,RPMI-8226 leukemia,1.38 µM
same,GI50,SF-295 CNS,0.833 µM
same,TGI,SF-295 CNS,3.64 µM
same,GI50,SF-539 CNS,1.21 µM
same,TGI,SF-539 CNS,5.32 µM
same,GI50,SK-MEL-28 melanoma,0.869 µM
same,TGI,SK-MEL-28 melanoma,3.55 µM
same,GI50,SK-OV-3 ovarian,3.93 µM
same,TGI,SK-OV-3 ovarian,11.6 µM
same,GI50,UACC-257 melanoma,0.871 µM
same,TGI,UACC-257 melanoma,3.97 µM
same,GI50,UO-31 renal,0.556 µM
same,TGI,UO-31 renal,2.92 µM
N#C[C@@H]1C(n2ccc(N)nc2=O)O[C@H](CO)[C@H]1O (stereo partly specified),GI50,ACHN renal,1.47 µM
same,TGI,ACHN renal,> 100 µM
same,GI50,K-562 leukemia,19.6 µM
same,TGI,K-562 leukemia,> 100 µM
same,GI50,NCI-H23 lung,4.51 µM
same,TGI,NCI-H23 lung,> 100 µM
same,GI50,RPMI-8226 leukemia,> 100 µM
same,TGI,RPMI-8226 leukemia,> 100 µM
same,GI50,SF-295 CNS,> 100 µM
same,TGI,SF-295 CNS,> 100 µM
same,GI50,SF-539 CNS,> 100 µM
same,TGI,SF-539 CNS,> 100 µM
same,GI50,SK-MEL-28 melanoma,64.2 µM
same,TGI,SK-MEL-28 melanoma,> 100 µM
same,GI50,SK-OV-3 ovarian,39.6 µM
same,TGI,SK-OV-3 ovarian,> 100 µM
same,GI50,UACC-257 melanoma,> 93.3 µM
same,TGI,UACC-257 melanoma,> 100 µM
same,GI50,UO-31 renal,6.18 µM
same,TGI,UO-31 renal,> 83.4 µM
COc1ccc2c(c1)[n+]([O-])c(/C(C)=N/NC(=O)CC#N)c[n+]2[O-],TGI,ACHN renal,> 100 µM
same,TGI,K-562 leukemia,> 100 µM
same,TGI,NCI-H23 lung,> 100 µM
same,TGI,RPMI-8226 leukemia,> 100 µM
same,TGI,SF-295 CNS,> 100 µM
same,TGI,SF-539 CNS,> 100 µM
same,TGI,SK-MEL-28 melanoma,> 100 µM
same,TGI,SK-OV-3 ovarian,> 100 µM
same,TGI,UACC-257 melanoma,> 100 µM
same,TGI,UO-31 renal,> 100 µM
COc1ccc(Cn2c(Cl)c(/C=C3/C(=O)Nc4ccccc43)c3cc(OC)c(C)cc32)cc1,GI50,ACHN renal,8.11 µM
same,TGI,ACHN renal,> 100 µM
same,GI50,NCI-H23 lung,4.78 µM
same,TGI,NCI-H23 lung,> 100 µM
same,GI50,RPMI-8226 leukemia,4.26 µM
same,TGI,RPMI-8226 leukemia,79 µM
same,GI50,SF-295 CNS,2.92 µM
same,TGI,SF-295 CNS,24.2 µM
same,GI50,SF-539 CNS,4.15 µM
same,TGI,SF-539 CNS,> 100 µM
same,GI50,SK-MEL-28 melanoma,4.03 µM
same,TGI,SK-MEL-28 melanoma,> 100 µM
same,GI50,SK-OV-3 ovarian,3.56 µM
same,TGI,SK-OV-3 ovarian,> 100 µM
same,GI50,UACC-257 melanoma,55.3 µM
same,TGI,UACC-257 melanoma,> 100 µM
same,GI50,UO-31 renal,5.82 µM
same,TGI,UO-31 renal,> 100 µM
Fc1cccc(Cl)c1/C=N\N=C1c2ccccc2-c2ccccc21,TGI,ACHN renal,> 100 µM
same,TGI,K-562 leukemia,> 100 µM
same,TGI,NCI-H23 lung,> 100 µM
same,TGI,RPMI-8226 leukemia,> 100 µM
same,TGI,SF-295 CNS,> 100 µM
same,TGI,SF-539 CNS,> 100 µM
same,TGI,SK-MEL-28 melanoma,> 100 µM
same,TGI,SK-OV-3 ovarian,> 100 µM
same,TGI,UACC-257 melanoma,> 100 µM
same,TGI,UO-31 renal,> 100 µM
O=C(O)CSc1ncccc1[N+](=O)[O-],TGI,ACHN renal,> 100 µM
same,TGI,K-562 leukemia,> 100 µM
same,TGI,NCI-H23 lung,> 100 µM
same,TGI,SF-295 CNS,> 100 µM
same,TGI,SF-539 CNS,> 100 µM
same,TGI,SK-MEL-28 melanoma,> 100 µM
same,TGI,SK-OV-3 ovarian,> 100 µM
same,TGI,UACC-257 melanoma,> 100 µM
same,TGI,UO-31 renal,> 100 µM
CC1CCN(CC(=O)N2c3ccccc3Sc3cc4ccccc4cc32)CC1,TGI,ACHN renal,> 100 µM
same,TGI,K-562 leukemia,> 100 µM
same,TGI,NCI-H23 lung,> 100 µM
same,TGI,RPMI-8226 leukemia,> 100 µM
same,TGI,SF-295 CNS,> 100 µM
same,TGI,SF-539 CNS,> 100 µM
same,TGI,SK-MEL-28 melanoma,> 100 µM
same,TGI,SK-OV-3 ovarian,> 100 µM
same,TGI,UACC-257 melanoma,> 100 µM
same,TGI,UO-31 renal,> 100 µM
Nc1nc(CCC(=O)Nc2cccc(C(F)(F)F)c2)cc(-c2ccc3ccccc3c2)n1,TGI,ACHN renal,> 100 µM
same,TGI,K-562 leukemia,> 100 µM
same,TGI,NCI-H23 lung,> 100 µM
same,TGI,RPMI-8226 leukemia,> 100 µM
same,TGI,SF-295 CNS,> 100 µM
same,TGI,SF-539 CNS,> 100 µM
same,TGI,SK-MEL-28 melanoma,> 100 µM
same,TGI,SK-OV-3 ovarian,> 100 µM
same,TGI,UACC-257 melanoma,> 100 µM
same,TGI,UO-31 renal,> 100 µM
Cc1ccc(SC(=O)N2C(=S)NC(=NC3CCCCC3)C23CCCCC3)cc1,TGI,ACHN renal,> 100 µM
same,TGI,K-562 leukemia,> 100 µM
same,TGI,NCI-H23 lung,> 100 µM
same,TGI,RPMI-8226 leukemia,> 100 µM
same,TGI,SF-295 CNS,> 100 µM
same,TGI,SF-539 CNS,> 100 µM
same,TGI,SK-MEL-28 melanoma,> 100 µM
same,TGI,SK-OV-3 ovarian,> 100 µM
same,TGI,UACC-257 melanoma,> 100 µM
same,TGI,UO-31 renal,> 100 µM
S=c1nc(-c2cccnc2)[nH][nH]1,TGI,ACHN renal,> 100 µM
same,TGI,NCI-H23 lung,> 100 µM
same,TGI,RPMI-8226 leukemia,> 100 µM
same,TGI,SF-295 CNS,> 100 µM
same,TGI,SK-MEL-28 melanoma,> 100 µM
same,TGI,SK-OV-3 ovarian,> 100 µM
same,TGI,UACC-257 melanoma,> 100 µM
CCOC(=O)[C@H]1Nc2ccc(OC)cc2C2c3ccccc3CC21 (stereo partly specified),TGI,ACHN renal,> 100 µM
same,TGI,K-562 leukemia,> 100 µM
same,TGI,NCI-H23 lung,> 100 µM
same,TGI,RPMI-8226 leukemia,> 100 µM
same,TGI,SF-295 CNS,> 100 µM
same,TGI,SF-539 CNS,> 100 µM
same,TGI,SK-MEL-28 melanoma,> 100 µM
same,TGI,UACC-257 melanoma,> 100 µM
same,TGI,UO-31 renal,> 100 µM
CCC(c1cccc(O)c1)C(CC)c1cccc(O)c1 (stereo unspecified),GI50,ACHN renal,5.64 µM
same,TGI,ACHN renal,18.9 µM
same,GI50,NCI-H23 lung,4.08 µM
same,TGI,NCI-H23 lung,16.6 µM
same,GI50,RPMI-8226 leukemia,2.05 µM
same,TGI,RPMI-8226 leukemia,7.73 µM
same,GI50,SF-295 CNS,3.99 µM
same,TGI,SF-295 CNS,19.7 µM
same,GI50,SF-539 CNS,1.23 µM
same,TGI,SF-539 CNS,4.72 µM
same,GI50,SK-MEL-28 melanoma,4.9 µM
same,TGI,SK-MEL-28 melanoma,18.2 µM
same,GI50,SK-OV-3 ovarian,2.76 µM
same,TGI,SK-OV-3 ovarian,11.1 µM
same,GI50,UACC-257 melanoma,11.5 µM
same,TGI,UACC-257 melanoma,26.4 µM
same,GI50,UO-31 renal,4.23 µM
same,TGI,UO-31 renal,17.8 µM
